Results published in PubChem BioAssay AID248 (DTP/NCI, 2004).
“And” between values parts separate entries of the source, which are not always exact repeats. Identical values can stand only once. Inconclusive results and toxic doses are left out. Rule as the data show it: active = T/C of 150% or more; inactive = T/C below 125%.

System: L1210 leukemia ip in BDF1 mice, survival T/C
Experiment: NCI In Vivo Anticancer Drug Screen. Data for tumor model L1210 Leukemia (intraperitoneal) in B6D2F1 (BDF1) mice
Settings: endpoint: mean survival time, higher = longer survival
How it was run: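 Mice bearing the transplanted tumor received compound or vehicle. Survival of the treated group was divided by that of the vehicle-treated control group to give the ratio.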

[1] = dose: 100.0 mg/kg/injection, schedule: Q01DX001 (ip), vehicle: Klucel (hydroxypropylcellulose) (HPC)
[2] = dose: 200.0 mg/kg/injection, schedule: Q01DX001 (ip), vehicle: Klucel (hydroxypropylcellulose) (HPC)
[3] = dose: 100.0 mg/kg/injection, schedule: Q01DX001 (ip), vehicle: carboxymethylcellulose (CMC)
[4] = dose: 50.0 mg/kg/injection, schedule: Q01DX009 (ip), vehicle: saline with Tween-80
[5] = dose: 100.0 mg/kg/injection, schedule: Q01DX009 (ip), vehicle: saline with Tween-80
[6] = dose: 200.0 mg/kg/injection, schedule: Q01DX009 (ip), vehicle: saline with Tween-80
[7] = dose: 100.0 mg/kg/injection, schedule: Q01DX009 (ip), vehicle: Klucel (hydroxypropylcellulose) (HPC)
[8] = dose: 200.0 mg/kg/injection, schedule: Q01DX009 (ip), vehicle: Klucel (hydroxypropylcellulose) (HPC)
[9] = dose: 400.0 mg/kg/injection, schedule: Q01DX009 (ip), vehicle: Klucel (hydroxypropylcellulose) (HPC)
[10] = dose: 100.0 mg/kg/injection, schedule: Q04DX003 (ip), vehicle: saline with Tween-80
[11] = dose: 200.0 mg/kg/injection, schedule: Q04DX003 (ip), vehicle: saline with Tween-80
[12] = dose: 400.0 mg/kg/injection, schedule: Q04DX003 (ip), vehicle: saline with Tween-80
[13] = dose: 100.0 mg/kg/injection, schedule: Q04DX003 (ip), vehicle: Klucel (hydroxypropylcellulose) (HPC)
[14] = dose: 200.0 mg/kg/injection, schedule: Q04DX003 (ip), vehicle: Klucel (hydroxypropylcellulose) (HPC)
[15] = dose: 200.0 mg/kg/injection, schedule: Q04DX002 (ip), vehicle: Klucel (hydroxypropylcellulose) (HPC)
[16] = dose: 400.0 mg/kg/injection, schedule: Q04DX002 (ip), vehicle: Klucel (hydroxypropylcellulose) (HPC)
[17] = dose: 25.0 mg/kg/injection, schedule: Q04DX002 (ip), vehicle: saline
[18] = dose: 50.0 mg/kg/injection, schedule: Q04DX002 (ip), vehicle: saline
[19] = dose: 100.0 mg/kg/injection, schedule: Q04DX002 (ip), vehicle: saline

Measured: T/C

CCOC(=O)C(=O)c1c(C)[nH]c(C(=O)OCC)c1C
inactive: dose: 25.0 mg/kg/injection, schedule: Q04DX003 (ip), vehicle: saline 104 % of control | dose: 50.0 mg/kg/injection, schedule: Q04DX003 (ip), vehicle: saline 93 % of control | [1] 95 % of control | dose: 100.0 mg/kg/injection, schedule: Q04DX003 (ip), vehicle: saline 98 % of control | [2] 97 % of control | dose: 400.0 mg/kg/injection, schedule: Q01DX001 (ip), vehicle: Klucel (hydroxypropylcellulose) (HPC) 101 % of control

COc1cc(NC(=O)Nc2ccc(Cl)c(C(F)(F)F)c2)ccc1NC(C)=O
inactive: dose: 50.0 mg/kg/injection, schedule: Q01DX009 (ip), vehicle: carboxymethylcellulose (CMC) 96 % of control and 103 % of control | [3] 103 % of control and 105 % of control | dose: 100.0 mg/kg/injection, schedule: Q04DX002 (ip), vehicle: carboxymethylcellulose (CMC) 94 % of control | dose: 100.0 mg/kg/injection, schedule: Q04DX003 (ip), vehicle: carboxymethylcellulose (CMC) 101 % of control and 105 % of control | dose: 200.0 mg/kg/injection, schedule: Q01DX001 (ip), vehicle: carboxymethylcellulose (CMC) 100 % of control and 102 % of control | dose: 200.0 mg/kg/injection, schedule: Q04DX002 (ip), vehicle: carboxymethylcellulose (CMC) 96 % of control and 90 % of control | dose: 200.0 mg/kg/injection, schedule: Q04DX003 (ip), vehicle: carboxymethylcellulose (CMC) 92 % of control and 99 % of control | dose: 400.0 mg/kg/injection, schedule: Q01DX001 (ip), vehicle: carboxymethylcellulose (CMC) 97 % of control and 105 % of control | dose: 400.0 mg/kg/injection, schedule: Q04DX002 (ip), vehicle: carboxymethylcellulose (CMC) 96 % of control and 90 % of control | dose: 400.0 mg/kg/injection, schedule: Q04DX003 (ip), vehicle: carboxymethylcellulose (CMC) 92 % of control

CCOCC(=O)CC1=CCCCC1
inactive: [4] 94 % of control | [5] 102 % of control | [6] 94 % of control

O=S(=O)(F)c1ccc(CBr)cc1
inactive: dose: 25.0 mg/kg/injection, schedule: Q01DX001 (ip), vehicle: saline 113 % of control | dose: 50.0 mg/kg/injection, schedule: Q01DX001 (ip), vehicle: saline 123 % of control | dose: 100.0 mg/kg/injection, schedule: Q01DX001 (ip), vehicle: saline 95 % of control and 98 % of control

C=C(Nc1ccc2ccccc2c1)S(=O)(=O)O
inactive: [7] 94 % of control | [8] 103 % of control | [9] 96 % of control

COc1ccc(C(C)(C#N)Nc2ccccc2)cc1 (configuration not stated)
inactive: [10] 98 % of control | [11] 96 % of control

ClC12CC3CC(CC(C3)C1)C2
inactive: dose: 100.0 mg/kg/injection, schedule: Q01DX009 (ip), vehicle: acetone 92 % of control | dose: 100.0 mg/kg/injection, schedule: Q04DX003 (ip), vehicle: acetone 91 % of control | dose: 200.0 mg/kg/injection, schedule: Q01DX009 (ip), vehicle: acetone 95 % of control and 91 % of control | dose: 200.0 mg/kg/injection, schedule: Q04DX003 (ip), vehicle: acetone 98 % of control | dose: 400.0 mg/kg/injection, schedule: Q01DX009 (ip), vehicle: acetone 93 % of control | dose: 400.0 mg/kg/injection, schedule: Q04DX003 (ip), vehicle: acetone 88 % of control

O=C(O)c1cscc1-c1c2ccccc2cc2ccccc12
inactive: [10] 88 % of control | [11] 91 % of control | [12] 88 % of control

CC(=O)Nc1ccc2c(c1)C(=Nc1ccccc1)c1ccccc1-2
inactive: [10] 91 % of control | [11] 91 % of control | [12] 91 % of control

Cc1cc(C)cc(C(O)(C(=O)O)c2ccccc2)c1 (configuration not stated)
inactive: dose: 75.0 mg/kg/injection, schedule: Q01DX001 (ip), vehicle: other 103 % of control | dose: 150.0 mg/kg/injection, schedule: Q01DX001 (ip), vehicle: other 103 % of control | dose: 300.0 mg/kg/injection, schedule: Q01DX001 (ip), vehicle: other 106 % of control

Oc1cccc2oc(=S)[nH]c12
inactive: dose: 25.0 mg/kg/injection, schedule: Q04DX003 (ip), vehicle: Klucel (hydroxypropylcellulose) (HPC) 106 % of control | dose: 50.0 mg/kg/injection, schedule: Q04DX003 (ip), vehicle: Klucel (hydroxypropylcellulose) (HPC) 92 % of control | [13] 103 % of control | [10] 95 % of control and 100 % of control | [11] 110 % of control

NC(N)=NC(N)=Nc1ccc(N=C(N)N=C(N)N)cc1
inactive: dose: 100.0 mg/kg/injection, schedule: Q01DX001 (ip), vehicle: other 104 % of control

O=C(/C=C/c1ccccc1)NN1CCCCC1
inactive: [7] 94 % of control | [13] 100 % of control | [8] 110 % of control | [14] 98 % of control

CCCC[n+]1cccc2ccccc21
inactive: dose: 25.0 mg/kg/injection, schedule: Q01DX001 (ip), vehicle: Klucel (hydroxypropylcellulose) (HPC) 105 % of control | dose: 50.0 mg/kg/injection, schedule: Q01DX001 (ip), vehicle: Klucel (hydroxypropylcellulose) (HPC) 100 % of control | [3] 96 % of control

COc1c(NC(=O)CC(C)=O)cccc1[N+](=O)[O-]
inactive: [7] 103 % of control | dose: 100.0 mg/kg/injection, schedule: Q04DX002 (ip), vehicle: Klucel (hydroxypropylcellulose) (HPC) 92 % of control | [8] 101 % of control | [15] 92 % of control | [9] 98 % of control | [16] 101 % of control

C/C(=C/C=C(c1ccccc1)c1ccccc1)C1CCC2C3CCC4CC5CCC4(C)C3(O5)C(=O)CC12C (configuration not stated)
inactive: dose: 100.0 mg/kg/injection, schedule: Q04DX003 (sc), vehicle: steriod suspending solution 96 % of control | dose: 200.0 mg/kg/injection, schedule: Q04DX003 (sc), vehicle: steriod suspending solution 93 % of control | dose: 400.0 mg/kg/injection, schedule: Q04DX003 (sc), vehicle: steriod suspending solution 93 % of control

COC1OC2COC(c3ccccc3)OC2C(OC(=S)SCc2ccccc2)C1OC(=O)c1ccccc1 (configuration not stated)
inactive: [17] 100 % of control | [18] 88 % of control | [19] 98 % of control | [15] 86 % of control | [16] 90 % of control

O=C(N/N=C/c1cccc([N+](=O)[O-])c1)c1ccc(Cl)cc1
inactive: [4] 96 % of control | [5] 89 % of control | [6] 89 % of control

O=C(N/N=C/c1ccc(Cl)cc1Cl)c1cccc([N+](=O)[O-])c1
inactive: [7] 100 % of control | [8] 100 % of control | [9] 94 % of control

CSCCNC(=O)C(=O)NCCSC
inactive: dose: 100.0 mg/kg/injection, schedule: Q04DX002 (ip), vehicle: other 95 % of control | dose: 200.0 mg/kg/injection, schedule: Q04DX002 (ip), vehicle: other 88 % of control | dose: 400.0 mg/kg/injection, schedule: Q04DX002 (ip), vehicle: other 98 % of control

CCCC(C)(O)C(=O)O (configuration not stated)
inactive: [17] 100 % of control | [18] 103 % of control | [19] 95 % of control

NC(CCl)=NCCCN1CCOCC1
inactive: [19] 114 % of control | dose: 200.0 mg/kg/injection, schedule: Q04DX002 (ip), vehicle: saline 97 % of control

Cc1ccc(SS(=O)(=O)c2ccc(C)cc2)cc1
inactive: [1] 86 % of control | dose: 100.0 mg/kg/injection, schedule: Q01DX009 (ip), vehicle: saline sonified 116 % of control | [13] 114 % of control | [2] 86 % of control | dose: 200.0 mg/kg/injection, schedule: Q01DX009 (ip), vehicle: saline sonified 102 % of control | [14] 101 % of control | dose: 400.0 mg/kg/injection, schedule: Q01DX009 (ip), vehicle: saline sonified 107 % of control | dose: 400.0 mg/kg/injection, schedule: Q04DX003 (ip), vehicle: Klucel (hydroxypropylcellulose) (HPC) 106 % of control

CC(C)(C)N1CC(C(=O)c2ccc3ccccc3c2)C1c1ccccc1 (configuration not stated)
inactive: [10] 93 % of control | [11] 98 % of control | [12] 88 % of control

CCOP(=S)(OCC)OCCN(CC)CC
inactive: dose: 5.0 mg/kg/injection, schedule: Q01DX001 (ip), vehicle: saline 101 % of control | dose: 10.0 mg/kg/injection, schedule: Q01DX001 (ip), vehicle: saline 105 % of control | dose: 20.0 mg/kg/injection, schedule: Q01DX001 (ip), vehicle: saline 105 % of control
